According to publication PMC10341573, “Design, Synthesis, and Biological Evaluation of Novel Quinazolin-4(3H)-One-Based Histone Deacetylase 6 (HDAC6) Inhibitors for Anticancer Activity” (International Journal of Molecular Sciences, 2023):
Values joined by “and” are separate entries in the source; they are usually repeats but may differ in a detail not shown here. Identical values can stand only once. Like-named read-outs stand apart in the source and are kept apart here.

Columns and labels:
A549, MCF-7, and HT-29 = system: A549, MCF-7, and HT-29; parameters: method as in doi:10.1016/j.molstruc.2022.132422; details: most active in all cell lines examined (A549, MCF-7, HT-29); read-out: IC50, antiproliferative; cited from earlier work
HCT-116 cell line = system: HCT-116 cell line; parameters: method as in PMID 33214036; details: read-out: IC50, antiproliferative; cited from earlier work
HDAC4 = molecular target: T1, HDAC4 (Homo sapiens, UniProt P56524); assay: HDAC enzyme activity assay (fluorogenic, Boc-Lys(trifluoroacetyl)-AMC), HDAC4; type: biochemical; details: class IIa HDAC4; mean ± SD, triplicate
T1 construct: catalytic domain of HDAC4 (T648-T1057, full length: UniProt P56524); made in house; host or cells: E. coli BL21(DE3), pET14b vector

HDAC8 = molecular target: T2, HDAC8 (Homo sapiens, UniProt Q9BY41); assay: HDAC enzyme activity assay (fluorogenic, Boc-Lys(trifluoroacetyl)-AMC), HDAC8; type: biochemical; details: class I HDAC8; mean ± SD, triplicate
T2 construct: codon-optimized full-length HDAC8; made in house; host or cells: E. coli BL21(DE3), pET14b vector
T2 sequence (Q9BY41 1-377): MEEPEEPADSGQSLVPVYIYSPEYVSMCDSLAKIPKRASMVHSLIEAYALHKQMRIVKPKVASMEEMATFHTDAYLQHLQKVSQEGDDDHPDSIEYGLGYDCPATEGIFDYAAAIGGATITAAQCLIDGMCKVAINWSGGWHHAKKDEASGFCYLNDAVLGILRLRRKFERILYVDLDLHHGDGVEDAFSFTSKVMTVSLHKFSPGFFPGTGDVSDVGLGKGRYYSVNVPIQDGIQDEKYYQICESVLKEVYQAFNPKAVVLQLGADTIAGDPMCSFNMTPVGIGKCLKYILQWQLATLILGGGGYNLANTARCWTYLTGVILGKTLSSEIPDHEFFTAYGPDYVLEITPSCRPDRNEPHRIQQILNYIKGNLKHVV

HEK 293 = assay: MTT cell proliferation assay, HEK 293; type: cell-based, human; details: Homo sapiens, read-out: IC50 ± SD HEK 293
B16 = assay: MTT cell proliferation assay, B16; type: cell-based, murine; details: Mus musculus, read-out: IC50 ± SD B16
HDAC6 = molecular target: T3, HDAC6 (Homo sapiens, UniProt Q9UBN7); assay: HDAC enzyme activity assay (fluorogenic, Boc-Lys(acetyl)-AMC), HDAC6; type: biochemical; details: class IIb HDAC6; mean ± SD, triplicate
T3 construct: Full-length recombinant HDAC6 was purchased from BPS Bioscience; purchased BPS Bioscience
T3 sequence (Q9UBN7 1-1215): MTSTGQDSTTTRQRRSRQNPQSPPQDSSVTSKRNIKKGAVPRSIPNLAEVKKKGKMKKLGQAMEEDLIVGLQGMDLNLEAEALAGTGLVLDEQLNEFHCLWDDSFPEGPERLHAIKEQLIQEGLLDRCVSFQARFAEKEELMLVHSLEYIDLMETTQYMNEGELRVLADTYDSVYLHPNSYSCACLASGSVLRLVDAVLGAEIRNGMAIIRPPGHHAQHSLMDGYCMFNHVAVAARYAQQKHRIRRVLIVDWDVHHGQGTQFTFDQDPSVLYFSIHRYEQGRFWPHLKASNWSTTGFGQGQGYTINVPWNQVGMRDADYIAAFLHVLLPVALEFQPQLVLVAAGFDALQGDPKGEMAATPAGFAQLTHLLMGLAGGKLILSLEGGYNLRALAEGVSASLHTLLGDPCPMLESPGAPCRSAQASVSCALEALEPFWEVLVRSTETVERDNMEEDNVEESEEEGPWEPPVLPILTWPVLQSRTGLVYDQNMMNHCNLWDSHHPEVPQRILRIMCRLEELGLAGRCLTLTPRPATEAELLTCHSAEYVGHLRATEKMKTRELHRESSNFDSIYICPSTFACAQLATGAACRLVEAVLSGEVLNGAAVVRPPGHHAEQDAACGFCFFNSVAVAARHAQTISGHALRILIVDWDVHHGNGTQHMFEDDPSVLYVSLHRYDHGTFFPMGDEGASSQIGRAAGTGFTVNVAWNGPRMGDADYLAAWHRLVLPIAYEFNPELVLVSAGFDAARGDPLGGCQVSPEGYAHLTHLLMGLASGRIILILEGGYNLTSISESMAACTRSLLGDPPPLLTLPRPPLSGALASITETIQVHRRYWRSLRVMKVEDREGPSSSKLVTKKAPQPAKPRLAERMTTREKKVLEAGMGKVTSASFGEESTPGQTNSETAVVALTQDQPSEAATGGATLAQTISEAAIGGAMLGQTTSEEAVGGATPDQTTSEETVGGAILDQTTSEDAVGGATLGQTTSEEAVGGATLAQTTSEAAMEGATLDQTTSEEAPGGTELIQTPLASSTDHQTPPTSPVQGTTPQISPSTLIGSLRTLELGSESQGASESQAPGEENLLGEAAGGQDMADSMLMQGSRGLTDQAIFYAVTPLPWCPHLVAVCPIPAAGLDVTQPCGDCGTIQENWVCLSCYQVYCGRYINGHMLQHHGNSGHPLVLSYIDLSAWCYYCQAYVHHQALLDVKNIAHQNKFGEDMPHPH

HCT116 = assay: MTT cell proliferation assay, HCT116; type: cell-based, human; details: Homo sapiens, read-out: IC50 ± SD HCT116
MCF7 = assay: MTT cell proliferation assay, MCF7; type: cell-based, human; details: Homo sapiens, MCF7, 72 h, read-out: IC50 ± SD MCF7
HCC827 cells = system: HCC827 cells; parameters: method as in PMID 34403956; details: strongest against all cancer cell lines, read-out: IC50, antiproliferative; cited from earlier work
HDAC = system: HDAC; parameters: method as in PMID 29223029; details: quinazoline-4-(3H)-one cap group; read-out: IC50 HDAC inhibitory activity; cited from earlier work
[1] = cited from earlier work
[2] = HEK293, MTT, 72 h, mean ± SD, triplicate
[3] = B16, MTT, 72 h, mean ± SD, triplicate
[4] = HCT-116, MTT, 72 h, mean ± SD, triplicate
[5] = MTT, 72 h, mean ± SD, triplicate

T1 sequence (P56524 648-1057): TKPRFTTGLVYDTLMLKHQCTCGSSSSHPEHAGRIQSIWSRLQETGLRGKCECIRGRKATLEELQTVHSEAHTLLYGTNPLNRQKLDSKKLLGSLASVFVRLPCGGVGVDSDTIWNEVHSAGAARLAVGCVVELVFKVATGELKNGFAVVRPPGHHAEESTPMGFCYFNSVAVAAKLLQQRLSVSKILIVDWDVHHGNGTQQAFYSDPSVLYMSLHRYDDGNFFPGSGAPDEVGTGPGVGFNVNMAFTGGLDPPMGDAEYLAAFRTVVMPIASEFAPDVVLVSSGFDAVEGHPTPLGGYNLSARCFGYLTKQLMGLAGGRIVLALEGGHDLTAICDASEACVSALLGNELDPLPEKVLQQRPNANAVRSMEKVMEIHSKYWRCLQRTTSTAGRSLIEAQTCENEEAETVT

SMILES	IC50 (HDAC4)	melting point	IC50 (HDAC8)	IC50 (HEK 293; [2])	IC50 (B16; [3])	IC50 (HDAC6)	IC50 (HCT116; [4])	IC50 (MCF7; [5])	further results
C=CCn1c(SCC(=O)Nc2cccc(C(=O)/C=C/c3ccc(OC)cc3)c2)nc2ccccc2c1=O [A]	–	–	–	–	–	–	–	–	IC50 (A549, MCF-7, and HT-29): 1.16 µM
C/C(=N\NC(=O)c1cc([N+](=O)[O-])ccc1Cl)c1ccc(NC(=O)CSc2nc3ccccc3c(=O)n2-c2ccc(C)cc2)cc1 [B]	–	–	–	–	–	–	–	–	IC50 (HCT-116 cell line): 11.7 µM
Cc1ccccc1-n1c(SCc2ccc(C(=O)NO)cc2)nc2cc(Cl)ccc2c1=O [Compound 5k, 4-(((7-chloro-4-oxo-3-(o-tolyl)-3,4-dihydroquinazolin-2-yl)thio)methyl)-N-hydroxybenzamide]	> 35 µM	180 °C and 178 to 180 °C	1.3 ± 0.1 µM	> 50 µM	> 50 µM	0.41 ± 0.15 µM	> 50 µM	> 50 µM	–
Cc1ccc(-n2c(SCc3ccc(C(=O)NO)cc3)nc3cc(Cl)ccc3c2=O)cc1 [Compound 5l, 4-(((7-chloro-4-oxo-3-(p-tolyl)-3,4-dihydroquinazolin-2-yl)thio)methyl)-N-hydroxybenzamide]	19 µM	170 to 175 °C and 173 to 175 °C	17 µM	> 50 µM	> 50 µM	3.9 ± 0.4 µM	> 50 µM	> 50 µM	–
O=C(NO)c1ccc(CSc2nc3cc(Cl)ccc3c(=O)n2-c2ccc(Cl)cc2)cc1 [Compound 5n, 4-(((7-chloro-3-(4-chlorophenyl)-4-oxo-3,4-dihydroquinazolin-2-yl)thio)methyl)-N-hydroxybenzamide]	6.7 ± 1.1 µM	230 to 235 °C and 234 to 235 °C	0.14 ± 0.02 µM	> 50 µM	33.9 ± 5.12 µM	0.32 ± 0.03 µM	> 50 µM	> 50 µM	–
O=C(c1ccccc1)N(C(=O)c1ccccc1)c1ccc(-c2ccc3ncn(Cc4ccccc4)c(=O)c3c2)cn1 [Compound C]	–	–	–	–	–	–	–	–	IC50 (HCC827 cells): 1.12 µM
COc1cc2ncn(Cc3ccc(C(=O)NO)cc3)c(=O)c2cc1OC [G]	–	–	–	–	–	–	–	–	IC50 (HDAC): 0.37 µM
O=C(NO)c1ccc(CN(c2cnccn2)c2cnccn2)cc1 [KA2507]	–	–	–	–	–	–	–	–	clinical activity ([1]; phase I/II): prolonged dis-ease stabilization in a subset of patients; toxicity in clinical trial ([1]; phase I/II): no significant toxicities
O=C(CCCCCCNC(=O)c1cnc(N(c2ccccc2)c2ccccc2)nc1)NO [Ricolinostat, reference compound]	–	–	–	–	–	–	–	–	IC50 (HEK 293; HEK293, 72 h): 66.8 ± 10.6 µM; IC50 (B16; B16, 72 h): 89.2 ± 12.5 µM; outcome of combination therapy with bortezomib and dexamethasone ([1]; multiple myeloma): safe, well-tolerated, and active against multiple myeloma; safety of combination with paclitaxel ([1]; patients with metastatic breast cancer): could be safely combined with paclitaxel; single-agent therapy outcome ([1]; single agent): neither significant toxicities nor clinical responses; IC50 (HCT116; HCT-116, 72 h): 40.5 ± 7.69 µM; IC50 (MCF7): > 50 µM
